Test [1] concerns the target T1, human arginase I (hArg, Accession Number: NM_000045.4), free enzyme (Homo sapiens, UniProt P05089).
T1 construct: His tag with thrombin site of pET28 (inferred from the NdeI primer, the stop codon in the reverse primer and nickel purification); made in house; host or cells: E. coli BL21(DE3)
It is filed as biochemical. As to conditions: L-arginine 0-500 mM, 40° C., 50 mM HEPES pH 8.0, 0.1 mM Mn^2+. As to the method:
All positive colonies were verified by DNA sequencing (BGI).
Expression and Purification of ODC and hArg Free Enzymes
(§1) All experiments were performed in triplicate.
as §1

Test [2] deals with T2, hArg-Cry1Ab fusion particles (human arginase I fused to the N-terminus of Cry1Ab) (Homo sapiens, UniProt P05089).
T2 construct: His tag of pET28 (inferred from the NdeI forward primer only) (N); made in house; host or cells: E. coli BL21(DE3)
T2 sequence (P05089 other isoform, or with tags, fused parts or gaps): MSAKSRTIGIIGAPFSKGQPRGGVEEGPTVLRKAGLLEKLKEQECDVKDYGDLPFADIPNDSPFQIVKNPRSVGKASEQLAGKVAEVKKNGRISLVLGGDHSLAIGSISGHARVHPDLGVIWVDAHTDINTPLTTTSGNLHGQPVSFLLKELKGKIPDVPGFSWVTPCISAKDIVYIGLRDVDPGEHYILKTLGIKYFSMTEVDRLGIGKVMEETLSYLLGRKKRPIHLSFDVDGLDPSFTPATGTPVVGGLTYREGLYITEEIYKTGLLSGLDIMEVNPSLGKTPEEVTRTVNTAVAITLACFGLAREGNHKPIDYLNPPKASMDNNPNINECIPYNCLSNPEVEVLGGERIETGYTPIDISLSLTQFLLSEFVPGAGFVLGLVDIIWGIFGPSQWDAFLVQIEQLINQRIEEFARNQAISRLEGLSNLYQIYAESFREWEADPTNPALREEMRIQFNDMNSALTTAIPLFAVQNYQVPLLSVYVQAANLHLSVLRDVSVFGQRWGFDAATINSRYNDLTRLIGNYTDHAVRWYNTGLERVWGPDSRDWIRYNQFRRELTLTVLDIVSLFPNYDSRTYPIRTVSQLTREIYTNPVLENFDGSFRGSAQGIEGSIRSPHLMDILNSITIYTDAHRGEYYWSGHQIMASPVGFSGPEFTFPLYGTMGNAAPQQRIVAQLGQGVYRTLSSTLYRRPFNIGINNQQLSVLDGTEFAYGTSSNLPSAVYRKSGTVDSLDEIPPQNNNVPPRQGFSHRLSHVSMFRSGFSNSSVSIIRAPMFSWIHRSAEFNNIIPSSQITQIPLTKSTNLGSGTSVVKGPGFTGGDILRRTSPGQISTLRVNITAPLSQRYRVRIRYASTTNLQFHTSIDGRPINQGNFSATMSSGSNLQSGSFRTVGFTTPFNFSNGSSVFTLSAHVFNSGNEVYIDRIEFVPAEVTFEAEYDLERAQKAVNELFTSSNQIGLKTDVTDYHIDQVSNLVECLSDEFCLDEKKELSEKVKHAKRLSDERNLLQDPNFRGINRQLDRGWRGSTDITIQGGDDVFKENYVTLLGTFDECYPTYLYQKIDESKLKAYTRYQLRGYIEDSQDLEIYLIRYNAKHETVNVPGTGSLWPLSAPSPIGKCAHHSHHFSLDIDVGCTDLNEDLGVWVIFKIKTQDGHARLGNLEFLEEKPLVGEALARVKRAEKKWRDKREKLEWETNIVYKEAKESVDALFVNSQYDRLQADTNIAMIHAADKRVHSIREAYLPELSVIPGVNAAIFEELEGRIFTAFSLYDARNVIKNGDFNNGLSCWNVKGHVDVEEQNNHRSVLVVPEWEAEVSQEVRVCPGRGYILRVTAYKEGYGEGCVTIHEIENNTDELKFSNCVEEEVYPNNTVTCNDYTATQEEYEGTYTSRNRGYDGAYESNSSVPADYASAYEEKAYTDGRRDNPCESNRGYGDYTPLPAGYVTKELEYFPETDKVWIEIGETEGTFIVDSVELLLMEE
In words: Kinetic studies, immobilized hArg-Cry1Ab particles. It counts as biochemical. As to conditions: L-arginine 0-500 mM, 40° C., pH 8.0, 0.1 mM Mn^2+, based on concentration of hArg.

Test [3] has as its target T3, Pos3Aa crystals (positively charged variant of Cry3Aa, domain II surface residues mutated) (Bacillus thuringiensis, UniProt P0A379).
T3 construct: engineered Cry3Aa, domain II surface residues replaced by Lys/Arg; no PEI; crystals produced in Bacillus thuringiensis (usual host)
In words: NADH binding capacity of Pos3Aa crystals. As to conditions: 0.25 mM NADH, 10° C., 30 min, 340 nm. As to the method: Previous studies by our lab had generated a positively charged variant of Cry3Aa, Pos3Aa, by mutating multiple residues on the surface of domain II of Cry3Aa to lysines creating a positively charged surface.
To compare the binding capacity of 3A-PEI crystals with Cry3Aa and Pos3Aa crystals, the same experiment was conducted as the control.
Cry3Aa is a self-crystallization protein produced naturally by certain strains of Bt. Our group has used crystals and particles of Cry3Aa for entrapment of positively charged small peptides and proteins due to the presence of abundant negatively charged residues, aspartic acid (Asp) and glutamic acid (Glu) residues, on the exposed surface of its domain II, which forms the solvent channels (FIG. 1A). We have engineered a protein called Pos3Aa, derived from the replacement of all these residues in domain II of Cry3Aa with positively charged arginine (Arg) and lysine (Lys) residues, which provide positively charged channels within the crystals. We hypothesized that these crystals would be able to entrap negatively charged molecules, such as phosphorylated cofactors, ionically inside the channels. […] Each molecular mass unit of this polymer (43 kDa) has 3 to 3.6-fold higher protonated nitrogen than poly-Arg and poly-Lys (one positive charge per 157 and 129 molecular masses), respectively. […]

Test [4] deals with T4, 3A-PEI crystals (polyethylenimine-modified Cry3Aa, Bacillus thuringiensis) (Bacillus thuringiensis subsp. tenebrionis, UniProt P0A379).
T4 construct: made in house; host or cells: Bacillus thuringiensis BT407G
T4 sequence (P0A379 1-644): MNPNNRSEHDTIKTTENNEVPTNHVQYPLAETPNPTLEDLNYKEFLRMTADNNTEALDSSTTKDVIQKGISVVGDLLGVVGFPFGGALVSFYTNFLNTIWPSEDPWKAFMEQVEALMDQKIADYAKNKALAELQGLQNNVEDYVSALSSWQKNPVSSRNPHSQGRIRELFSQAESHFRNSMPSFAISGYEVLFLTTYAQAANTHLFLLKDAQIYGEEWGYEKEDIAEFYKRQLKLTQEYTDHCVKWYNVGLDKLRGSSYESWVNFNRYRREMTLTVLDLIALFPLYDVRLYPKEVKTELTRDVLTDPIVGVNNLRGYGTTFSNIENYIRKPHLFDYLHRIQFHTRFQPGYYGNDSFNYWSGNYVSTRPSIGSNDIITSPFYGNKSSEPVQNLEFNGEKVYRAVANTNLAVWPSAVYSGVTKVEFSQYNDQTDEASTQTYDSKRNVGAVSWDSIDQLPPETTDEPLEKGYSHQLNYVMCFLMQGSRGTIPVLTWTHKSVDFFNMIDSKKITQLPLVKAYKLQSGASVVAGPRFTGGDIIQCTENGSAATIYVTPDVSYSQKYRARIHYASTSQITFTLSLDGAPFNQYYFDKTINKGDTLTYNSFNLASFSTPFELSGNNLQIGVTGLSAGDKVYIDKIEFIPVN
In words: NADH binding capacity of 3A-PEI crystals. As to conditions: NaPB 25 mM.

The target in test [5] is T1, human arginase I (hArg, Accession Number: NM_000045.4), free enzyme. In words: Effect of urea on the activity of hArg. It counts as biochemical. As to conditions: 0 to 1 M urea, 40° C., 6 h. On the procedure: as §1, §1

T1 sequence (P05089 whole entry): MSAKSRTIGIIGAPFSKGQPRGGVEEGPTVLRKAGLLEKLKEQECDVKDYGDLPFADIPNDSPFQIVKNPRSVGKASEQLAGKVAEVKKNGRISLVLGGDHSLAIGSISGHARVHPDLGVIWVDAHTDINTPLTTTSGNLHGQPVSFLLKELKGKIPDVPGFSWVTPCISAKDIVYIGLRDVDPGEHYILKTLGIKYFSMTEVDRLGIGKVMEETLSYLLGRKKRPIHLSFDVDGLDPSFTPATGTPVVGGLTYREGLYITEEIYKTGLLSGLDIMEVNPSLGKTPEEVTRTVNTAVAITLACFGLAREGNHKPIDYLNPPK

Turning to `N=C(N)NCCC[C@H](N)C(=O)O` [L-arginine], the kcat stood at 99.9 ± 1.7 s⁻¹ in test [1] and 59.7 ± 0.8 s⁻¹ in test [2]. Further, the Km in test [1] (read-out: appKm) is 20 ± 1.3 mM; in test [2] (read-out: appKm), 18.5 ± 0.3 mM.
For `NC(=O)C1=CN([C@@H]2O[C@H](COP(=O)(O)OP(=O)(O)OC[C@H]3O[C@@H](n4cnc5c(N)ncnc54)[C@H](O)[C@@H]3O)[C@@H](O)[C@H]2O)C=CC1` [NADH, nicotinamide adenine dinucleotide], the NADH binding capacity is 11.2 ± 0.7 µmol/g in test [3], 453.5 ± 2.8 µmol/g in test [4] (pH 6.0), 412 ± 4 µmol/g in test [4] (pH 7.0) and 350.2 ± 3.6 µmol/g in test [4] (pH 8.0).
For the molecule `NC(N)=O` [urea], the “effect of urea on activity” value in test [5] is given as “unaffected”.

Source of the values: patent US20260242427A1 (priority 2024, published 2026).
